We go through three compounds from EP1192182B1, “PITUITARY ADENYLATE CYCLASE ACTIVATING PEPTIDE (PACAP) RECEPTOR 3 (R3) AGONISTS AND THEIR PHARMACOLOGICAL METHODS OF USE” (priority 1999, dated 2001).

A short description of series [1]: Intraperitoneal glucose tolerance test (IPGTT), plasma glucose. Format: in vivo, Wistar rats. To be noted: for Plasma Glucose (% of Basal) i.v.: plasma glucose area under the curve after IPGTT (1 g/kg glucose), % of vehicle, 1 nmol/kg peptide i.v. The protocol:
Wistar rats are fasted overnight and then anesthetized with pentobarbital. The rats were eye-bled (zero time) and the peptide ( in 1% human albumin) was injected into the tail vein. Five minutes later, 1 g/kg of glucose (in saline) was injected intraperitoneally, and the rats were eye-bled after 15, 30 and 60 minutes. Plasma glucose levels were determined using the Technicon Axon autoanalyzer, Bayer Diagnosics division of Bayer Corporation, Tarrytown NY, operated using Method No. SM4-2143F90 "Glucose".
(§1) In accordance with the protocol of example 2 above, overnight fasted Wistar rats were anesthetized with pentobarital; i.v. injected with glucose ± peptide and eye bled after 1 minute. N=12 rats/group. […] The peptide or vehicle was given i.v. followed by a glucose load given i.p. in accordance with example 3. The plasma glucose was followed over the time period indicated.
Wistar rats were fasted overnight and then anesthetized with Pentobarbital. The rats were eye-bled (zero time) and the peptide (in 1 % human albumin) was injected subcutaneously. Five minutes later, 1 g/kg of glucose (in saline) was injected intraperitoneally, and the rats were eye-bled after 30 minutes.
Plasma glucose: Data are expressed as % of vehicle of plasma glucose area under the curve after IPGTT (1 g/kg glucose) after treatment with 1 nmol/kg dose of the peptide. […] The present Inventors have shown for the first time that this is because the effects of R2 and R3 on glucose tend to cancel each other out. […] Therefore, R3-selectlvlty appears to be a desirable attribute for medicaments which are to be employed in achieving blood glucose reduction, for treatment of type 2 diabetes.

A further series has as its system rat islets. Description: Insulin release from isolated rat islets. The series is classed as cell-based, Sprague-Dawley rats. Particulars: peptide 10nM for 2hrs, 8mM glucose; % of [insulin] in 8mM glucose alone. The protocol: Sprague Dawley rats (275-320 g) were used as the source of donor islets. Briefly, the pancreas was filled with 10 ml of cold reconstituted Liberase RI (Boehringer Manheim), harvested and incubated with additional 5 ml enzyme solution in water bath for 30 minutes. Tissue suspension was washed twice with cold 10% FBS/Hanks buffer (Gibco), resuspended in 8 ml 25% ficoll (Sigma) and then layered with 5 ml each of 23%, 20% and 11 % ficoll. The islets in the 20% layer after centrifugation were removed, washed twice with cold 10% FBS/Hank buffer and resuspended in 10% FBS/RPMI 1640 media (Sigma).
Islet insulin release: Rat islets were isolated from Sprague-Dawley rats as described in example 1 and treated with either vehicle or specified peptide (10nM) for 2hrs. Insulin concentration in the medium was measured with the Linco rat insulin RIA kit. Glucose concentration in the medium was 8mM. The data are expressed as % of [insulin] in 8mM glucose alone. No polypeptide-induced Increases in insulin concentration were observed al 3 mM glucose; thus, the insulin releasing activity of these polypeptides are glucose-dependent. It should be noted that the following Table includes data for polypeptides which are not part of the present invention.

The nature of series [2]: Airway hyperresponsiveness in the primate acute asthma model. Format: in vivo, cynomolgus monkeys (Macaca fascicularis). The protocol: Male cynomolgus monkeys (Macaca fascicularis) used in this study were maintained at constant temperature and humidity, with a twelve hour light cycle. They were fed twice daily, except on an experimental day when food was withheld the night before the procedure. Water was available ad lib at all times.
Airway hyperresponsiveness (AHR)(baseline) was measured 1 week before the control (no treatment) antigen challenge, and again 24hrs after antigen challenge. Antigen-induced airway hyperresponsiveness was measured by a fall in the PC100 (the concentration of methacholine required to cause a 100% increase in lung resistance) at 24hr compared to baseline. After 2 weeks rest, another baseline measurement of AHR was performed. […] AHR was again measured, and the fall in PC100 with treatment was compared to that without treatment. […]
The endotracheal tube was connected to a Harvard Ventilator adjusted to deliver 30-35 breaths per minute. Airflow was measured by a Fleisch pneumotachograph and thoracic pressure was measured by a validyne pressure transducer (as the difference between the pressure at the distal end of the et tube and room pressure). […]
Antigen challenge: This was an inhalation challenge with Ascaris suum. […] 30 breaths of antigen were administered after which the acute bronchoconstriction was monitored for 15min. […]

The next series addresses T1, PACAP-R3 (Homo sapiens, UniProt P41587).
T1 sequence (P41587 24-438): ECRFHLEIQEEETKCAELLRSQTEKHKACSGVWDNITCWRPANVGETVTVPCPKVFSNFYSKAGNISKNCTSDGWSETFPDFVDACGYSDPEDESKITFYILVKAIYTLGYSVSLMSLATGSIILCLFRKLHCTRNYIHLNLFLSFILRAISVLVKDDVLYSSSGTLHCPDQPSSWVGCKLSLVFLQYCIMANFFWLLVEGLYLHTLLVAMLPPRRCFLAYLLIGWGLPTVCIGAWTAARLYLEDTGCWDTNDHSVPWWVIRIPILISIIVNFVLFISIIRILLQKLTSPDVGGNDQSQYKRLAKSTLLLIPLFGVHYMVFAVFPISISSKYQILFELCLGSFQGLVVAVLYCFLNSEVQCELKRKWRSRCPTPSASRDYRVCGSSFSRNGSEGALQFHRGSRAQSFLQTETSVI
Particulars: literature; cited from earlier work.

Series [3] relates to guinea pig tracheal smooth muscle. Particulars: Bolin et al 1995; US 5,677,419; cited from earlier work.
For series [4] the following is noted: in vivo; cited from earlier work.
Series [5] can be described thus: Peptide-induced elevation of plasma insulin after IVGTT. Format: in vivo. Particulars: one minute after IVGTT (0.4g/kg glucose), 1 nmole/kg peptide i.v., Wistar rats. The protocol: Wistar rats are fasted overnight (17 hrs) and then anesthetized with pentobarbital (0.1 ml/100 g BW). Glucose (0.4 g/kg dissolved in 1% human albumin-saline) +/- peptide (dissolved in 1% human albumin-saline) is injected intravenously into the tail vein. The rats are eye-bled 1 minute after the injection and 50-100ul of the plasma are assayed for insulin level with the Linco RIA kit (Linco Research, Inc., St. Charles, MO).
as §1
Plasma insulin: Data are expressed as % of plasma insulin one minute after IVGTT (0.4g/kg glucose) with either saline, 0.1nmol/kg P51, P55, P60, P66 or 1 nmole/kg of the other peptides including peptides which are not part of the present invention in Wistar rats. Blood was drawn from the eye and insulin was measured with the rat insulin RIA kit (Linco Research, Inc, St. Charles, MO).

Series [6] is described as follows: Heart rate in conscious dogs. To be noted: i.v., AUC of first 10 minutes of heart rate change. The protocol:
Beagle dogs were put into a sling where they have been trained to stand for up to 3 hours. The cuff of the heart rate monitor was placed around the tail of the dog.
Saline was injected into the cephalic vein and heart rate monitored every 2 minutes to establish a baseline. After 10 minutes, peptide, including peptides which are not part of the invention, was injected and heart rate monitored every 2 minutes for the next 20 minutes. If heart rate was normal at that time, a higher dose was given and heart rate monitored for 20 minutes.

Positions of bridges follow the written chain, without caps; N, C: chain ends. Non-standard residues stand in square brackets, D forms with d. Residues, ends and D or L forms follow the SMILES beside them. Nle = CCCC[C@H](N)C(=O)O

Turning to `CCCC[C@H](NC(=O)[C@H](CCC(N)=O)NC(=O)[C@H](CCCCN)NC(=O)[C@H](CCCNC(=N)N)NC(=O)[C@H](CC(C)C)NC(=O)[C@H](CCCCN)NC(=O)[C@@H](NC(=O)[C@H](Cc1ccc(O)cc1)NC(=O)[C@H](CC(N)=O)NC(=O)[C@H](CCC(=O)O)NC(=O)[C@@H](NC(=O)[C@H](Cc1ccccc1)NC(=O)[C@@H](NC(=O)[C@H](C)NC(=O)[C@H](CC(=O)O)NC(=O)[C@H](CO)NC(=O)[C@H](Cc1c[nH]cn1)NC(C)=O)C(C)C)[C@@H](C)O)[C@@H](C)O)C(=O)N[C@@H](C)C(=O)N[C@@H](C)C(=O)N[C@@H](CCCCN)C(=O)N[C@H]1CCCCNC(=O)C[C@@H](C(=O)N[C@@H](CC(C)C)C(=O)N[C@@H](CCCCN)C(=O)N[C@@H](CCCCN)C(=O)NCC(=O)NCC(=O)N[C@H](C(N)=O)[C@@H](C)O)NC(=O)[C@H](CC(N)=O)NC(=O)[C@H](CC(C)C)NC(=O)[C@H](Cc2ccc(O)cc2)NC1=O` [Peptide R3P0] (Ac-HSDAVFTENYTKLRKQ[Nle]AAKKYLNDLKKGGT-NH2; lactam 21-25 (inferred)), in series [1], the “Plasma Glucose (% of Basal) i.v.” value is 77 % of Basal. For the same compound, in the series with rat islets, the “Islet Insulin Release (% of Basal)” value is on record as 264 % of Basal. Besides, the “Delta log10 PC100, Mean, Treated” value in series [2] (0.6ug/mg aerosol 10 minutes before antigen challenge, +24hr minus baseline, N 4) is -0.150. For the same compound, the “% Inhibition of induced AHR” value in series [2] (0.6ug/mg aerosol, P(Treated vs Control) 0.240) was found to be 54%. Moreover, the PACAP-R3 selectivity result at PACAP-R3 was “greater than 100 fold”. The “relaxing guinea pig tracheal smooth muscle” value in series [3] is “active”.

With “HAEGTFTSDV SSYLEGQAAK EFIAWLKGR-NH2 [GLP-1]”, the “glucose disposal in the rat” value in series [1] (1 nmole/kg dose, subcutaneous route, FIG. 7 legend) is on record as “enhance glucose disposal”. Besides, in series [4], the plasma half-life entry is listed as “a few minutes”.

Take “[K15, R16, L27]VIP(1-7)/GRF(8-27) [Peptide R2P1]”: the “Plasma Insulin (% of Basal)” value in series [5] is reported as 216 % of Basal. In addition, the “increases plasma glucose level” value in series [1] (IPGTT, 1 nmol/kg) is 14%. In addition, the “Plasma Glucose (% of Basal) i.v.” value in series [1] was 114 % of Basal. The “potency in heart rate increase, fold less potent than PACAP27 or maxadilan” value in series [6] is reported as “at least 10 fold”.
